Experimental findings from patent US20250188078A1, “SMALL MOLECULE INHIBITORS OF THE CRL4 UBIQUITIN LIGASE” (Cornell University, priority 2022, published 2025) are described below.

In data set [1] the target is CUL4A-DDB1-BPB interaction (Homo sapiens (Human), UniProt Q16531). Nature of the data set: AlphaLISA in vitro binding assay, CUL4A and DDB1-BPB binding. Particulars: inhibition of CUL4A and DDB1-BPB binding. The source says:
AlphaLISA IC50 (see Table 1, column 4) means the half maximal inhibitory concentration of compound that inhibits CUL4A and DDB1-BPB binding. Our lab established and optimized 384 well-based AlphaLISA in vitro binding assay for testing small molecule inhibitory activity. Small molecule libraries were screened for compounds that disrupt CUL4A-DDB1-BPB interaction using AlphaScreen detection beads (PerkinElmer, #AL112C and #6765300) following the manufacturer's protocol (https://www.perkinelmer.com/PDFs/downloads/GDE-Alphatech.pdf, hereby incorporated by reference in its entirety for all purposes). The 384-well assay plates (Greiner Bio-one, #781075) were read in Synergy Neo2 Hybrid Multi-Mode Reader (BioTek). The IC50 was calculated by Prism 8 XY analysis nonlinear regression (curve fit-Log(inhibitor) vs response).
In general terms: Bead proximity is the source of the signal in Alpha formats.

The nature of data set [2]: Dynamic light scattering (DLS) solubility assay. To be noted: normalized intensity ratio of 25 μM compound vs DMSO, in PBS. The class given is physicochemical. As for the experimental part:
Dynamic light scattering (DLS) (see Table 1, column 3) is a tool for studying the diffusion behavior of macromolecules in solution. To profile compound solubility, DLS assay was developed for measuring aggregation of small molecule compounds. Compound stock solution was prepared in DMSO. Dilution series were made for each compound in DMSO to ensure a final 1× assay concentration range of 200 μM to 0.78 μM. For example, if the final DMSO concentration was 1%, compounds were prepared at 100× concentrations ranging from […] to 78 μM. Dilute compounds in PBS solution to final concentration. Place 60 μl/well in 96 well plates and 3 replicates for each sample. Data were collected using a DynaPro Plate Reader III (WYATT Technologies, Inc., USA). The instrument was adjusted to measure the optimal light scattering intensity according to the manufacturer's instructions. […] The ratio over 2 means (−) insoluble. The ratio below 2 means (+) soluble and around 2 means (+/−).

Data set [3] has as its system UV-induced CUL4-dependent DDB2 degradation in MEF-F-DDB2 cells. Nature of the data set: Cell-based assay for inhibition of UV-induced CUL4-dependent DDB2 degradation. Set-up: key: (+) means that the normalized DDB2/α-tubulin ratio is higher in the compound treated sample than DMSO treated sample; (−) means that no change happens between compound treated sample with control sample. Particulars: DDB2/α-tubulin by Western blot. As for the experimental part:
Cell-based assay for inhibition of UV-induced CUL4-dependent DDB2 degradation by small molecule CUL4 inhibitors (see Table 1, column 5). Briefly, MEF-F-DDB2 cells were seeded in 6-well plates. DMSO or indicated concentrations of compounds were added to MEF-F-DDB2 cells growing in serum-free medium. MEF-F-DDB2 cells were washed once with PBS and subsequently irradiated with a Philips TUV lamp (predominantly 254 nm) at a dose rate of 0.2 W/m^2. DMSO or compounds were added to MEF-F-DDB2 cells, and then cells were harvested. The cells were lysed, and equal amounts of proteins were resolved on SDS-PAGE gel and Flag-DDB2 levels were detected using anti-DDB2 (D4C4) rabbit antibody (Cell signaling, #5416S). α-tubulin (Proteintech, #66031-1-Ig) was used as an internal loading control. (+) means that the normalized DDB2/α-tubulin ratio is higher in the compound treated sample than DMSO treated sample. (−) means that no change happens between compound treated sample with control sample.
On the technique in general: Immunoblotting shows a protein as a band on a membrane.

Data set [4] deals with CUL4A^high MDA-MB-468 breast cancer cells. As to the kind of experiment: Cell killing in CUL4-high MDA-MB-468 cells (CellTiter Glo). Format: cell-based. To be noted: Homo sapiens, 192 h; MDA-MB-468 cells, 8 days treatment; read-out: EC50 CUL4-High Cells (cell killing). As to the method:
EC50 refers to concentration of compound that induces 50% killing of CUL4A^high MDA-MB-468 cells (see Table 1, column 6). CUL4A^high MDA-MB-468 breast cancer cells were seeded in 96 well plates. After 24 hours, cells were treated with DMSO or compounds. Change fresh medium and compounds. After 8 days treatment, cell viability was examined by using CellTiter Glo kit (Promega #7570) following the manufacturer's guidelines (https://www.promega.com/-/media/files/resources/protocols/technicalbulletins/0/celltiter-glo-luminescent-cell-viability-assay protocol.pdf?rev=0d95c232094b41daa06d0c110d1d916f&sc_lang=en, hereby incorporated by reference in its entirety for all purposes). EC50 concentration was calculated by Prism 8 XY analysis nonlinear regression (curve fit-Log(inhibitor) vs response). Lower EC50 indicates high cell killing potential in CUL4^high MDA-MB-468 cells.
CUL4A^high MDA-MB-468, CUL4^low (T47D), and MCF7 breast cancer cells were seeded in 96 well plates separately. Cells were treated with DMSO, or from 0 to 20 μM compound respectively. Replace with fresh medium and compounds every 48 hours. After 8 days treatment, cell viability was examined by CellTiter Glo kit (Promega #7570). First, transfer the appropriate volume (10 ml for Cat. #G7570) of CellTiter-Glo® Buffer into the amber bottle containing CellTiter-Glo® Substrate to reconstitute the lyophilized enzyme/substrate mixture. This forms the CellTiter-Glo® Reagent. Second, add CellTiter-Glo® Reagent in an equal volume (100 μl per well for 96-well plates) to all wells. Mix contents for 2 minutes on an orbital shaker to induce cell lysis. Incubate at room temperature for 15 minutes to stabilize luminescent signal. Then record luminescence. EC50 concentration was calculated by Prism 8 XY analysis nonlinear regression (curve fit-Log(inhibitor) vs response).
On the technique in general: Cellular ATP, detected with luciferase, serves as a proxy for viable cell number.

Chain of CUL4A-DDB1-BPB interaction (Q16531 403-706): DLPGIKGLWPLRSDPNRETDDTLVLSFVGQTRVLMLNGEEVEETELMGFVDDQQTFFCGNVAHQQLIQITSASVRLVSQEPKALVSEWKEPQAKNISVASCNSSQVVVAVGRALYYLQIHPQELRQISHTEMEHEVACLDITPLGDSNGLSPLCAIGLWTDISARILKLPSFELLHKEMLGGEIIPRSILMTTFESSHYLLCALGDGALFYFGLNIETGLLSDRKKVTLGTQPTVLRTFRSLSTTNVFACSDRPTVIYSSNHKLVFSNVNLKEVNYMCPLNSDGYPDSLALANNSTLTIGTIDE

In general, IC50 refers to the concentration that gives 50% inhibition. `Cc1ccc(-c2nc(C(=O)O)cc3c2[nH]c2ccccc23)cc1` [PA2]: in data set [1], the IC50 was found to be 3430 ± 1570 nM. In addition, the “Solubility (DLS Assay)” value in data set [2] is “-(insoluble)”. In addition, in data set [3], the “Degradation Inhibition (inhibition of UV-induced DDB2 degradation)” value (shortened to “Degradation Inhibition”) is reported as “+”.

Consider `NC(=O)c1cc2c([nH]c3ccccc32)c(-c2ccc([N+](=O)[O-])cc2)n1` [PA9, 1-(4-nitrophenyl)-9H-pyrido[3,4-b]indole-3-carboxamide], for which the “AlphaLisa IC50” value in data set [1] is recorded as “Neg”. In addition, in data set [2], the “Solubility (DLS Assay)” value is “-(insoluble)”. Also, the “Degradation Inhibition” value in data set [3] is on record as “+”.

What is called EC50 is the concentration needed to bring the measured effect to its halfway point. Consider `CN(c1ccc(-c2nc(C(=O)O)cc3c2[nH]c2cc(F)c(F)cc23)cc1)S(=O)(=O)c1ccccc1` [PA1-7, 6,7-difluoro-1-(4-(N-methylphenylsulfonamido)phenyl)-9H-pyrido[3,4-b]indole-3-carboxylic acid], for which the IC50 in data set [1] was determined as 127 nM. The “Solubility (DLS Assay)” value in data set [2] was “-(insoluble)”. In addition, in data set [4], the EC50 was 8.65 µM.

Take `O=C(O)c1cc2c([nH]c3ccccc32)c(-c2cc(F)c(F)c(F)c2)n1` [PA33]: in data set [1], the concentration for half-maximal inhibition (IC50) stood at 2000 ± 380 nM. Besides, in data set [2], the “Solubility (DLS Assay)” value was “-(insoluble)”.

In the case of `O=C(O)c1cc2c([nH]c3ccccc32)c(-c2ccc(F)cc2)n1` [PA3], the IC50 in data set [1] stood at 1410 ± 310 nM. Also, in data set [2], the “Solubility (DLS Assay)” value is “+/−”. Further, the “Degradation Inhibition” value in data set [3] is “+”.

Turning to `CN1CCN(c2ccc(S(=O)(=O)N(C)c3ccc(-c4nc(C(=O)O)cc5c4[nH]c4cc(F)ccc45)cc3)cc2)CC1` [PA1-13A-7, 7-fluoro-1-(4-((N-methyl-4-(4-methylpiperazin-1-yl)phenyl)sulfonamido)phenyl)-9H-pyrido[3,4-b]indole-3-carboxylic acid], the IC50 in data set [1] was found to be 380 nM. Besides, the “Degradation Inhibition” value in data set [3] is reported as “−”. In addition, the EC50 in data set [4] was 14.5 µM.

With `O=C(O)c1cc2c([nH]c3cc(F)ccc32)c(-c2ccc(Oc3ccccc3)cc2)n1` [PA1-11A, 7-fluoro-1-(4-phenoxyphenyl)-9H-pyrido[3,4-b]indole-3-carboxylic acid], the “Degradation Inhibition” value in data set [3] is “−”. In addition, in data set [4], the EC50 was determined as 15.7 µM.

For `O=C(O)c1cc2c([nH]c3cc(F)ccc32)c(-c2ccc(OCc3ccsc3)cc2)n1` [PA1-11I, 7-fluoro-1-(4-(thiophen-3-ylmethoxy)phenyl)-9H-pyrido[3,4-b]indole-3-carboxylic acid], the “Degradation Inhibition” value in data set [3] was “−”. The EC50 in data set [4] amounted to 14 µM.

Consider `CN(c1ccc(-c2nc(C(=O)O)cc3c2[nH]c2cc(F)ccc23)cc1)S(=O)(=O)c1ccc(C#N)cc1` [PA1-13A-2, 1-(4-((4-cyano-N-methylphenyl)sulfonamido)phenyl)-7-fluoro-9H-pyrido[3,4-b]indole-3-carboxylic acid], for which the concentration for half-maximal inhibition (IC50) in data set [1] is 2510 nM. For the same compound, in data set [3], the “Degradation Inhibition” value is “−”. Further, the EC50 in data set [4] is 3.54 µM.

For `COc1cccc(-c2nc(C(=O)O)cc3c2[nH]c2ccccc23)c1` [PA8], the IC50 in data set [1] is 7750 ± 1820 nM. Besides, the “Solubility (DLS Assay)” value in data set [2] is recorded as “-(insoluble)”.

As for `O=C(O)c1cc2c([nH]c3cc(F)ccc32)c(-c2ccc(OCC3CCCCC3)cc2)n1` [PA1-11D, 1-(4-(cyclohexylmethoxy)phenyl)-7-fluoro-9H-pyrido[3,4-b]indole-3-carboxylic acid], the “Degradation Inhibition” value in data set [3] is listed as “−”. For the same compound, in data set [4], the EC50 was 9.51 µM.

As for `O=C(O)c1cc2c([nH]c3cc(F)ccc32)c(-c2ccc(OCc3cccnc3)cc2)n1` [PA1-11G, 7-fluoro-1-(4-(pyridin-3-ylmethoxy)phenyl)-9H-pyrido[3,4-b]indole-3-carboxylic acid], the “Degradation Inhibition” value in data set [3] was “−”. The 50% effective concentration (EC50) in data set [4] is above 20 µM.

For the compound `O=C(O)c1cc2c([nH]c3cc(F)ccc32)c(-c2ccc(OCC3CCOCC3)cc2)n1` [PA1-11E, 7-fluoro-1-(4-((tetrahydro-2H-pyran-4-yl)methoxy)phenyl)-9H-pyrido[3,4-b]indole-3-carboxylic acid], the “Degradation Inhibition” value in data set [3] is “−”. Moreover, the EC50 in data set [4] is above 20 µM.

Consider `COC(=O)c1cc2c([nH]c3cc(F)ccc32)c(-c2ccc(N(C)S(=O)(=O)c3ccc(C#N)cc3)cc2)n1` [PA1-13A-2 ESTER], for which the “AlphaLisa IC50” value in data set [1] is listed as “Neg”. Besides, the “Degradation Inhibition” value in data set [3] is recorded as “+”. Also, the EC50 in data set [4] is above 20 µM.

`COC(=O)c1cc2c([nH]c3cc(C#N)ccc32)c(-c2ccc(N(C)S(=O)(=O)c3ccccc3)cc2)n1` [PA1-9 ESTER, methyl 7-cyano-1-(4-(N-methylphenylsulfonamido)phenyl)-9H-pyrido[3,4-b]indole-3-carboxylate]: the “AlphaLisa IC50” value in data set [1] is “Neg”. Further, the “Solubility (DLS Assay)” value in data set [2] is “-(insoluble)”.

For the compound `Cc1cc(N(C)S(=O)(=O)c2ccccc2)ccc1-c1nc(C(=O)O)cc2c1[nH]c1cc(F)ccc12` [PA1-12A, 7-fluoro-1-(2-methyl-4-(N-methylphenylsulfonamido)phenyl)-9H-pyrido[3,4-b]indole-3-carboxylic acid], the IC50 in data set [1] stood at 2400 nM. For the same compound, the “Degradation Inhibition” value in data set [3] was “−”. Further, the EC50 in data set [4] was 9.84 µM.

For the compound `Cc1cccc(-c2nc(C(=O)O)cc3c2[nH]c2ccccc23)c1` [PA7], in data set [1], the IC50 worked out at 10200 ± 3330 nM. Further, the “Solubility (DLS Assay)” value in data set [2] is on record as “-(insoluble)”.

`O=C(O)c1cc2c([nH]c3cc(F)ccc32)c(-c2ccc(OCCCc3ccccc3)cc2)n1` [PA1-11C, 7-fluoro-1-(4-(3-phenylpropoxy)phenyl)-9H-pyrido[3,4-b]indole-3-carboxylic acid]: the “Degradation Inhibition” value in data set [3] is “−”. Moreover, the concentration for a half-maximal effect (EC50) in data set [4] was 7.31 µM.

In the case of `O=C(O)c1cc2c([nH]c3cc(F)ccc32)c(-c2ccc(OCc3cscn3)cc2)n1` [PA1-11K, 7-fluoro-1-(4-(thiazol-4-ylmethoxy)phenyl)-9H-pyrido[3,4-b]indole-3-carboxylic acid], the “Degradation Inhibition” value in data set [3] was “−”. In addition, in data set [4], the concentration giving a half-maximal response (EC50) was above 20 µM.

`O=C(O)c1cc2c([nH]c3cc(F)ccc32)c(-c2ccc(OCc3ccccn3)cc2)n1` [PA1-11H, 7-fluoro-1-(4-(pyridin-2-ylmethoxy)phenyl)-9H-pyrido[3,4-b]indole-3-carboxylic acid]: the “Solubility (DLS Assay)” value in data set [2] is listed as “-(insoluble)”. Also, the “Degradation Inhibition” value in data set [3] is recorded as “−”.

Consider `O=C(O)c1cc2c([nH]c3ccccc32)c(-c2cccc(F)c2)n1` [PA5], for which the IC50 in data set [1] was determined as 2340 ± 770 nM. Also, the “Solubility (DLS Assay)” value in data set [2] is on record as “-(insoluble)”.
